Source: patent US8945846B2, “Mutations in the LNK gene in patients with myeloproliferative neoplasms and other hematolymphoid malignancies” (The Board of Trustees of the Leland Stanford Junior …, priority 2010, dated 2015)

Legend:
[1] = test system: BaF3-MPL cells expressing WT or mutant LNK; experiment: JAK inhibitor growth assay of BaF3-MPL cells grown with TPO; format: cell-based; settings: TPO 10 ng/mL, JAK inhibitor I 0.2 μM to 5 μM, FIG. 2C
Procedure: FIG. 2. LNK mutations cause dysregulated TPO-dependent growth and JAK2-STAT3/5 activation. BaF3-MPL cells were transduced with empty vector (EV), WT LNK (WT), or mutant LNK (DEL, E208Q, R392E). […] Viable cells were counted daily by staining with propidium iodide (PI) and quantitated with TruCount beads on a LSRII flow cytometer. Error bars represent the standard deviation of two replicates per sample. In Panel B, BaF3-MPL cells were stimulated with TPO (1 ng/ml) for the durations indicated, followed by measurement of JAK2, STAT3 and STAT5 activation via phospho-specific flow cytometry. […] Vertical lines denote the MFI of EV unstimulated cells for comparison. In Panel C, BaF3-MPL cells were cultured in the presence of DMSO control or concentrations of JAK inhibitor I ranging from 0.2 μM to 5 μM. Cumulative growth at four days (normalized to maximal growth for each cell line) is shown. Error bars represent the standard deviation of two replicates per sample.
BaF3-MPL cells were kindly provided by J. Tyner/B. Druker (Oregon Health and Sciences University, Portland, Oreg.) and were maintained in RPMI medium containing 10% FBS and IL-3 (1 ng/mL) (Peprotech, Rocky Hill, N.J.). […] Viable cells were counted daily by staining with propidium iodide (PI) and quantitated with TruCount beads (BD Biosciences, San Jose, Calif.) on a LSRII flow cytometer. […]

[2] = test system: STAT3/5 activation (pSTAT3+/5+ subpopulation); experiment: Cytokine-stimulated STAT3/5 activation by phospho-specific flow cytometry in patient peripheral blood immature myeloid cells; format: cell-based, human; settings: samples from LNK DEL, E208Q, JAK2 V617F, MPL W515L patients and normal donor; 5 μM for 30 minutes, then TPO 50 ng/ml or G-CSF 20 ng/ml for 15 minutes; FIG. 3A
Procedure: FIG. 3. Identification of a cytokine-responsive pSTAT3+/pSTAT5+ population in CD34+ early progenitors from patients with LNK mutations. Peripheral blood samples from patients with the LNK DEL and E208Q mutations, as well as PMF patients with the JAK2 V617F and MPL W515L mutations, were compared with normal donor. CD3-/CD66-/CD33mid immature myeloid cells are shown in Panels A-C. In Panel A, samples were pre-incubated with either DMSO or JAK inhibitor I (5 μM) for 30 minutes, and then stimulated with either TPO (50 ng/ml) or G-CSF (20 ng/ml) for 15 minutes, prior to assessment of STAT3 and STAT5 activation by phospho-specific flow cytometry. […] For Panels A and B, numbers depicted in each quadrant represent the percentage of total cells present in each quadrant gate. […] DNA was isolated from each subset, and allele-specific quantitative PCR for the DEL mutation was performed. […]
BaF3-MPL cells were starved overnight in cytokine-free media and stimulated with TPO (1 or 10 ng/mL) for time points ranging from 15 minutes to 16 hours at 37° C. […] Cells were measured on a BD LSRII flow cytometer. […] Flow cytometry data was obtained with FACSDiva software and analyzed using FlowJo (Tree Star, Ashland, Oreg.) or Cytobank according to standard procedures. […]

JAK2-STAT3/5 activation = experiment: TPO-stimulated JAK2, STAT3 and STAT5 activation by phospho-specific flow cytometry in BaF3-MPL cells; format: cell-based; settings: BaF3-MPL cells expressing WT or mutant LNK; pre-incubated two hours with 0.2 μM to 5 μM, then TPO 10 ng/mL; FIG. 5
Procedure: FIG. 5. Activation of JAK2-STAT3/5 in BaF3-MPL cells expressing WT or mutant LNK requires JAK activity. BaF3-MPL cells expressing WT or mutant LNK were pre-incubated with DMSO or JAK inhibitor I at concentrations ranging from 0.2 μM to 5 μM for two hours prior to stimulation with TPO (10 ng/mL). JAK2, STAT3, and STAT5 activation were then measured by phospho-specific flow cytometry. Line graphs represent % maximal activation for each cell line.
BaF3-MPL cells were starved overnight in cytokine-free media and stimulated with TPO (1 or 10 ng/mL) for time points ranging from 15 minutes to 16 hours at 37° C. Peripheral blood samples were stimulated with either TPO (50 ng/ml) or G-CSF (20 ng/ml)(Peprotech, Rocky Hill, N.J.) for 15 minutes at 37° C. PBMCs were rested in RPMI with 10% FBS for one hour at 37° C. prior to cytokine stimulation. For the JAK inhibitor experiments, PBMCs were incubated with 5 μM JAK inhibitor I (EMD/Calbiochem, San Diego, Calif.) for the final 30 minutes prior to cytokine stimulation. Following cytokine stimulation, cells were fixed in paraformaldehyde (Electron Microscopy Sciences, Hatfield, Pa.). […] Cells were measured on a BD LSRII flow cytometer. […] Flow cytometry data was obtained with FACSDiva software and analyzed using FlowJo (Tree Star, Ashland, Oreg.) or Cytobank according to standard procedures. […]

JAK inhibitor I
TPO-dependent growth (cumulative growth at four days) [1]: remained susceptible to JAK inhibition | Effect on cytokine-responsive pSTAT3+/5+ subpopulation [2]: completely eradicated | Inhibition of JAK2-STAT3/5 activation (JAK2-STAT3/5 activation): effectively inhibited
